Key:
[1] = tested on: normal NK cells expanded with K562-aAPC; assay: percent inhibition of viability; higher = more inhibition; conditions: 72 h, IL-2 2.5 ng/mL
Method: (§1)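 Drug sensitivity and resistance testing on K562-aAPC-expanded normal NK cells: 5 concentrations (10-fold steps over a 10,000-fold range), 72 h at 37 °C, viability by CellTiter-Glo normalised to DMSO and benzethonium chloride controls; DSS from the fitted curve.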

[2] = tested on: DERL-7 (IL-2 2.5 ng/mL); assay: as above; conditions: 72 h
[3] = tested on: IMC-1 (IL-2 20 ng/mL); assay: as above; conditions: 72 h
[4] = tested on: KAI3 (IL-2 2.5 ng/mL); assay: as above; conditions: 72 h
[5] = tested on: KHYG-1 (IL-2 2.5 ng/mL); assay: as above; conditions: 72 h
[6] = tested on: NK-92 (IL-2 2.5 ng/mL); assay: as above; conditions: 72 h
[7] = tested on: NK-YS (IL-2 2.5 ng/mL); assay: as above; conditions: 72 h
[8] = tested on: NKL (IL-2 2.5 ng/mL); assay: as above; conditions: 72 h
[9] = tested on: SNK-6 (IL-2 2.5 ng/mL); assay: as above; conditions: 72 h
[10] = tested on: YT (IL-2 2.5 ng/mL); assay: as above; conditions: 72 h
[11] = tested on: normal primary NK cells, pool 1 (3 donors) (IL-2 2.5 ng/mL); assay: as above; conditions: 72 h
[12] = tested on: normal primary NK cells, pool 1 (3 donors), resting (IL-2 0 ng/mL); assay: as above; conditions: 72 h
[13] = tested on: normal primary NK cells, pool 2 (3 donors) (IL-2 2.5 ng/mL); assay: as above; conditions: 72 h
[14] = tested on: normal primary NK cells, pool 3 (3 donors) (IL-2 2.5 ng/mL); assay: as above; conditions: 72 h
[15] = tested on: normal NK cells expanded with K562-aAPC; assay: drug sensitivity score (DSS) (DSS units); higher = more sensitive; extreme values may be limits of the assay; conditions: 72 h; IL-2 2.5 ng/mL
Method: as §1

[16] = tested on: DERL-7 (IL-2 2.5 ng/mL); assay: as above; conditions: 72 h
[17] = tested on: IMC-1 (IL-2 20 ng/mL); assay: as above; conditions: 72 h
[18] = tested on: KAI3 (IL-2 2.5 ng/mL); assay: as above; conditions: 72 h
[19] = tested on: KHYG-1 (IL-2 2.5 ng/mL); assay: as above; conditions: 72 h
[20] = tested on: NK-92 (IL-2 2.5 ng/mL); assay: as above; conditions: 72 h
[21] = tested on: NK-YS (IL-2 2.5 ng/mL); assay: as above; conditions: 72 h
[22] = tested on: NKL (IL-2 2.5 ng/mL); assay: as above; conditions: 72 h
[23] = tested on: SNK-6 (IL-2 2.5 ng/mL); assay: as above; conditions: 72 h
[24] = tested on: YT (IL-2 2.5 ng/mL); assay: as above; conditions: 72 h
[25] = tested on: normal primary NK cells, pool 1 (3 donors) (IL-2 2.5 ng/mL); assay: as above; conditions: 72 h
[26] = tested on: normal primary NK cells, pool 1 (3 donors), resting (IL-2 0 ng/mL); assay: as above; conditions: 72 h
[27] = tested on: normal primary NK cells, pool 2 (3 donors) (IL-2 2.5 ng/mL); assay: as above; conditions: 72 h
[28] = tested on: normal primary NK cells, pool 3 (3 donors) (IL-2 2.5 ng/mL); assay: as above; conditions: 72 h

O=NN(CCCl)C(=O)NCCCl [Carmustine] (max concentration tested 10000 nM)
percent inhibition of viability [%]
Conditions | 1 nM | 10 nM | 100 nM | 1000 nM | 10000 nM
[1] | -3.33 | -8.02 | -3.23 | 5.49 | 10.2
[2] | 5.36 | 1.21 | 3.36 | -4.79 | -4.35
[3] | -8.03 | -3.09 | -2.96 | 3.55 | 8.41
[4] | 12.9 | 6.82 | 6.77 | 13.6 | 17.8
[5] | -12.5 | -8.6 | -6.75 | 0.23 | 1.87
[6] | -3.64 | -0.92 | 5.06 | 12.7 | 8.79
[7] | -3.2 | -2.47 | -1.96 | 2.21 | 7.95
[8] | 4.96 | 5.53 | 6.04 | 16.2 | 15.6
[9] | -5.81 | -6.45 | 1.48 | -7.81 | -8.51
[10] | -9.42 | -5.55 | -4.43 | -1.14 | 11
[11] | 4.94 | 8.26 | 6.5 | 0.38 | 7.88
[12] | 9.22 | 19.6 | 23.1 | 5.64 | 15.2
[13] | -2.54 | 3.84 | 0.64 | 0.07 | 9.39
[14] | -2.97 | 5.49 | 5.6 | 3.01 | 4.59

Conditions | drug sensitivity score
[15] | 0.01
[16] | 0
[17] | 0
[18] | 0
[19] | 0
[20] | 1.02
[21] | 0
[22] | 1.26
[23] | 0
[24] | 0
[25] | 0
[26] | 0
[27] | 0
[28] | 0

COCC1(CO)C(=O)C2CCN1CC2 (configuration not stated) [APR-246] (max concentration tested 10000 nM)
percent inhibition of viability [%]
Conditions | 1 nM | 10 nM | 100 nM | 1000 nM | 10000 nM
[1] | -2.16 | 1.78 | 5.44 | 14.3 | 66.4
[2] | 4.22 | 1.94 | 4.99 | -6.45 | 12.9
[3] | -7.37 | -2.9 | -3.59 | 8.76 | 9.03
[4] | -1.81 | 0.4 | -2.31 | 2.12 | 16.5
[5] | -5.21 | -0.64 | -2.81 | 5.38 | 7.34
[6] | -5.03 | 9.77 | 10.8 | 10.9 | 10.2
[7] | -7.21 | 1.41 | 3.46 | 5.78 | 20.9
[8] | -3.21 | -5.06 | 5.12 | 11 | 36.4
[9] | 4.82 | 6.66 | 11.8 | 20.5 | 26.2
[10] | -1.79 | -3.13 | 4.5 | 1.6 | 7.67
[11] | 0.39 | -11.5 | 5.91 | 70.5 | 98
[12] | -1.14 | -6.72 | 13.5 | 82.8 | 91.7
[13] | -11.3 | -4.04 | 11.3 | 77 | 96
[14] | -9.08 | -4.43 | 12.5 | 73 | 98

Conditions | drug sensitivity score
[15] | 5.95
[16] | 0.03
[17] | 0
[18] | 0.58
[19] | 0
[20] | 0.65
[21] | 1.17
[22] | 3.01
[23] | 3.96
[24] | 0
[25] | 14.2
[26] | 16.9
[27] | 15.7
[28] | 15.2

O=C(/C=C/c1cccnc1)NCCCCC1CCN(C(=O)c2ccccc2)CC1 [Daporinad] (max concentration tested 1000 nM)
percent inhibition of viability [%]
Conditions | 0.1 nM | 1 nM | 10 nM | 100 nM | 1000 nM
[1] | -5.42 | -8.02 | 95.3 | 98.9 | 99.5
[2] | -1.42 | 36.4 | 98.7 | 99.8 | 101
[3] | -4.3 | -0.58 | 95.2 | 101 | 99.6
[4] | 0.04 | 4.42 | 89.6 | 104 | 107
[5] | -4.62 | 0.47 | 102 | 108 | 110
[6] | -12.4 | -11 | 78.5 | 107 | 110
[7] | -0.02 | 65.7 | 101 | 107 | 109
[8] | -7.99 | 8.6 | 96.8 | 106 | 109
[9] | -2.25 | 67.5 | 98.8 | 101 | 101
[10] | -3.84 | 3.35 | 72 | 106 | 109
[11] | 3.25 | 78.4 | 97.4 | 98.2 | 98.6
[12] | 19.1 | 78.8 | 93.6 | 93.4 | 94.4
[13] | 1.47 | 71.4 | 96.2 | 96.4 | 95.7
[14] | 0.86 | 57.3 | 98.6 | 99.3 | 100

Conditions | drug sensitivity score
[15] | 29.2
[16] | 35.4
[17] | 29.8
[18] | 29.3
[19] | 30.7
[20] | 26.9
[21] | 38.1
[22] | 31.6
[23] | 38.3
[24] | 26.6
[25] | 39.6
[26] | 40.4
[27] | 37.9
[28] | 37.3

Source: the supplement of paper PMC5908809
